This is an account of results in patent EP4674849A1, “FLUORESCENT DYE FOR DETECTING NUCLEIC ACID” (Keio University, priority 2023, dated 2024).

This assay concerns the target deoxyribonucleic acid (derived from salmon sperm) with a length of 500 to 1000 bp. Kind of assay: DNA binding assay of fluorescent dyes (fluorescence titration, fit to McGhee-von Hippel equation). Conditions: TE buffer (pH: 8.0); dye 200, 400, 800 nM; DNA 0.5-12 µM; excitation 475 nm, emission 520 nm; read-out: Dissociation constant Kd.

Broadly, the Kd is the constant that tells how readily two partners part at equilibrium.

Excerpt: The obtained results were fitted to the McGhee-von Hippel equation (Equation 1) to determine the dissociation constant (Kd) and the number of base pairs at the dye-binding site (N).

With `CCCN(CCCN(C)C)c1cc(/C=C2/Sc3ccccc3N2C)c2ccccc2[n+]1-c1ccccc1`, the Kd worked out at 1000 ± 90 nM.
